# Results reported in US7851638B2, “Cyclohexanesulfonyl derivatives as GLYT1 inhibitors to treat schizophrenia” (Merck Sharp & Dohme Limited, priority 2005, dated 2010).
smiles,measurement,value
"Cc1nc(C(F)(F)F)ccc1C(=O)NCC1(CC2CC2)CCC(S(=O)(=O)CC2CC2)CC1 (stereo not shown) [Example 3, N-(4-Cyclopropylmethanesulfonyl-1-cyclopropylmethyl-cyclohexylmethyl)-2-methyl-6-trifluoromethyl-nicotinamide]",melting point,148 to 151 °C
